The values that follow come from patent publication US7214519B2, “Screening method for identifying heme independent modulators of soluble guanylyl cyclase (sGC) activity using αβCys105 mutant sGC” (Board of Regents of the University of Texas System, priority 2003, dated 2007).

Positions count from the first letter of the chain named.

The target of one test is T1, αβ^Cys105 mutant sGC (Homo sapiens, UniProt Q02108+Q02153, H105C).
T1 construct: made in house; host or cells: Sf9 cells (baculovirus)
T1 sequence (Q02153 1-619 H105C): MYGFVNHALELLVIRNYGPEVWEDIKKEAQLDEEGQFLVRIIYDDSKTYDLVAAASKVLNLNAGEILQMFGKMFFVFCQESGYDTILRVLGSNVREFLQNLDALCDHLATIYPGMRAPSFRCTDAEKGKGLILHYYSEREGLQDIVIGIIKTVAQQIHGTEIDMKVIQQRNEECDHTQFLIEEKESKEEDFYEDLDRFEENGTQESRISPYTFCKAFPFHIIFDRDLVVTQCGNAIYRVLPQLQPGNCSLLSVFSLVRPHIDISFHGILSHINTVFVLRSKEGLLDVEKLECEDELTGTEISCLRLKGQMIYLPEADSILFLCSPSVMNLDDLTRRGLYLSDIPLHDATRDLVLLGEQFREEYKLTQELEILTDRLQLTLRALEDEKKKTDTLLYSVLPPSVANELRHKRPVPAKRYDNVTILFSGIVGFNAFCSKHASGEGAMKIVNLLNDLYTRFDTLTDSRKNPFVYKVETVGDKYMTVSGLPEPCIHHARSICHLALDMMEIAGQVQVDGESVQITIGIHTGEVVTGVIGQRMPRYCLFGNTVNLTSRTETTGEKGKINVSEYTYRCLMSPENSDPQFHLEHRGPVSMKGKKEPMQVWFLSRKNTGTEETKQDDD
T1 sequence (Q02108 1-690): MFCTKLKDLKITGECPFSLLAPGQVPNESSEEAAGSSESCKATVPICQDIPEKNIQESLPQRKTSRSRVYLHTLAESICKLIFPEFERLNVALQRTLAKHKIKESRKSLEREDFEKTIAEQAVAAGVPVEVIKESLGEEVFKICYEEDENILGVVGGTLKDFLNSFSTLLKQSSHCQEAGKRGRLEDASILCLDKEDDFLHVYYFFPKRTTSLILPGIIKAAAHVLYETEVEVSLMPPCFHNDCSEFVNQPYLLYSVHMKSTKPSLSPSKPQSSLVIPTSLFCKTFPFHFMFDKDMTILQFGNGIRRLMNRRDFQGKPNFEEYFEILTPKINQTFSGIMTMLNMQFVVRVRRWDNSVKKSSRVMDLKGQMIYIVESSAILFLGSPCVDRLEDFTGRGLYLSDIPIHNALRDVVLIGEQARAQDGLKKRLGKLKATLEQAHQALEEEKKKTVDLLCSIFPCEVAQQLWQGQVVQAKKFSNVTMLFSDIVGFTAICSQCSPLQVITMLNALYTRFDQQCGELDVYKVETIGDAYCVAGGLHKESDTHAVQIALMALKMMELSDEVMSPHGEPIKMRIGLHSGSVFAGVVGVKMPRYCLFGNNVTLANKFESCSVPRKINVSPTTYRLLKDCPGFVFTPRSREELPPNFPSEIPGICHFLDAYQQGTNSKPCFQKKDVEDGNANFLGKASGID
The test is described as follows: Assay of sGC activity ([32P]cGMP formation from GTP), purified αβ^Cys105 mutant enzyme. The test is classed as biochemical. Here is the method:
(§1) sGC Expression and Purification. […] Purification of sGC was performed as described earlier (26), the disclosure of which is hereby incorporated herein by reference, with the following modifications. Cells were harvested 72 h post infection, resuspended in loading buffer (25 mM triethanolamine, pH 7.5. 10 glycerol, 4 mM MgCl2 and 1 mM phenylmethylsulfonyl fluoride, and 5 μg/ml each of pepstatin A, leupeptin, aprotinin, and chymostatin,) and lysed by sonication. The lysate was subjected to 100,000×g centrifugation for 1 h. The high-speed supernate was loaded on a 60 ml DEAE-Sepharose (Amersham Pharmacia Biotech) column and washed with 60 ml of loading buffer without protease inhibitors. The proteins were eluted with loading buffer containing 250 mM NaCl and the eluate was directly loaded on a 30 ml His-Bind resin (Novagen) column. The column was washed with 60 ml of loading buffer followed by 60 ml of loading buffer with 45 mM imidazole. The enzyme was eluted with 175 mM imidazole and 2 ml fractions were collected. […] The enzyme at this stage was approximately 90–95% pure. To remove imidazole, sGC-containing fractions were diluted 3 fold with 25 mM triethanolamine pH 7.5, loaded on a 2 ml Hi-Trap DEAE-Sepharose column (Amersham Pharmacia Biotech), washed with 10 ml of loading buffer and eluted with 25 mM triethanolamine pH 7.5, 250 mM NaCl, 10 glycerol, 4 mM MgCl2, 0.5 mM EDTA, 0.5 mM EGTA. The enzyme obtained at this stage (95% or greater purity) was used for experiments.
(§2) Assay of sGC Activity. Enzyme activity was assayed by formation of [^32P] cGMP from α[^32P]GTP at 37° C. in a final volume of 100 μl. Incubation medium contained 50 mM triethanolamine-HCl buffer (pH 7.4), 1 mM 3-isobutyl-1-methylxanthine (IBMX), 1 mg/ml BSA. 1 mM cGMP, 3 mM MgCl2, 0.05 mg/ml creatine phosphokinase, 5 mM creatine phosphate, 0.1 mM EGTA. 200 μM GTP (about 10.000 cpm/pmol). The reaction was started by addition of the substrate (GTP) with or without activators. 1 mM DTT, GSH or cysteine were added to the incubation medium before the addition of GTP. Thiol concentration varied in some experiments as indicated. Samples containing 0.2 μg sGC were incubated for 10 or 15 min and the reaction was stopped by addition of 500 μl 150 mM zinc acetate and 500 μl 180 mM sodium carbonate. The pellet of zinc carbonate containing most of the unreacted GTP was removed by centrifugation and the supernatant fractions were loaded onto columns filled with 1 g of neutral alumina. Columns were then eluted with 10 ml 0.1 M Tris-HCl buffer (pH 7.5) and Cherenkov radiation in flow through plus eluate was counted in a LKB liquid scintillation spectrometer. Samples incubated in the absence of sGC were used as a negative control. The concentration of dimethylsulfoxide (DMSO) used as a vehicle for YC-1 was not higher than 0.1 and had no effect on sGC activity as determined previously.

The next test has as its target T2, wild type sGC (Homo sapiens, UniProt Q02108+Q02153).
T2 construct: made in house; host or cells: Sf9 cells (baculovirus)
T2 sequence (Q02153 1-619): T1 sequence (Q02153 1-619 H105C) with C105H
T2 sequence (Q02108 1-690): T1 sequence (Q02108 1-690)
The experiment in a line: Assay of sGC activity ([32P]cGMP formation from GTP), purified wild type enzyme. The test is classed as biochemical. Here is the method:
as §1, §2

Where [1] appears, read: 2 μM BAY-41-2272, data not shown.

As for `O[C@@H](CS)[C@@H](O)CS` [DTT, reference compound], the “concentration at which inhibitory effect is prominent” value on αβ^Cys105 mutant sGC (concentration-response, FIG. 1B) is given as “higher than 1 mM”. Also, on αβ^Cys105 mutant sGC (millimolar concentrations of DTT), the “fold decrease in enzymatic activity” value was 5–7 fold. At wild type sGC (1 mM DTT vs no thiols), the “change of activity without DTT” value was “did not change significantly”.
On to `Nc1nc(-c2nn(Cc3ccccc3F)c3ncccc23)ncc1C1CC1` [BAY-41-2272, 5-cyclopropyl-2-[1-(2-fluoro-benzyl)-1H-pyrazolo[3,4-b]pyridin-3-yl]-pyrimidin-4-ylamine, reference compound], for which the “effect compared with 100 μM YC-1” value at αβ^Cys105 mutant sGC (setting [1]) and at wild type sGC (setting [1]) was “Identical effects” each time.
With `CCCCC/C=C\C/C=C\C/C=C\C/C=C\CCCC(=O)O` [arachidonic acid, reference compound], on αβ^Cys105 mutant sGC (1 mM arachidonic acid, in the presence of DTT), the “activity with arachidonic acid” value turned out to be 0.5 µmol/min/mg. Moreover, on αβ^Cys105 mutant sGC (1 mM, in the presence of DTT), the “fold stimulation by arachidonic acid” value was found to be 3.5 fold. Besides, the “stimulation by arachidonic acid” value at αβ^Cys105 mutant sGC (absence of DTT) is “only modestly stimulated”. The “maximum fold activation by arachidonic acid” value on wild type sGC (not affected by DTT, data not shown) amounted to 3 fold.
Consider `N[C@@H](CCC(=O)N[C@@H](CS)C(=O)NCC(=O)O)C(=O)O` [GSH, glutathione, reference compound], for which the “specific activity in the presence of GSH” value on αβ^Cys105 mutant sGC (GSH as reducing agent, no DTT) is given as “up to 2 μmol/min/mg”. In addition, at αβ^Cys105 mutant sGC (GSH concentration above 1 mM), the “effect of GSH on activity” value is given as “slight stimulatory effect”.
Regarding `OCc1ccc(-c2nn(Cc3ccccc3)c3ccccc23)o1` [YC-1, 3-(5′-Hydroxymethyl-2′furyl)-1-benzyl-indazole, reference compound], at αβ^Cys105 mutant sGC (100 μM YC-1, DTT-free conditions), the “increase of activity with YC-1 activation” value worked out at 30. For the same compound, the “extent of activation by YC-1 after heme reconstitution” value at αβ^Cys105 mutant sGC (100 μM YC-1, DTT-treated heme-reconstituted enzyme) is “did not change the extent of activation”. In addition, the “fold activation by YC-1” value at αβ^Cys105 mutant sGC (100 μM YC-1, in the presence of DTT) is “up to 3 fold”. In addition, on wild type sGC (100 μM YC-1), the “fold stimulation by YC-1” value was found to be 11 fold and the “specific activity with YC-1” value came out at 0.15 µmol/min/mg.
With `NCCSSCCN` [cystamine, reference compound], the “sensitivity to cystamine in the presence of DTT” value at αβ^Cys105 mutant sGC (1 mM cystamine, 1 mM DTT) is given as “less sensitive”. In addition, the “effect of cystamine on activity in the presence of DTT” value at wild type sGC (1 mM cystamine, 1 mM DTT) was “reversed”. Moreover, the “effect of cystamine on activity” value at wild type sGC (1 mM cystamine, no DTT) is listed as “inhibited”.
For the compound `C=CC1=C(C)c2cc3[nH]c(cc4nc(cc5[nH]c(cc1n2)c(C)c5CCC(=O)O)C(CCC(=O)O)=C4C)c(C)c3C=C` [PPIX, protoporphyrin IX, reference compound], the “stimulation of basal activity by PPIX” value at αβ^Cys105 mutant sGC (1 μM PPIX, absence of DTT) came out at 80.
